Assays:
MV4-11 = assay: Cell viability assay (CellTiter-Glo), FLT3 cell-based assay; settings: MV4-11 cells, 72 hr at 37° C., 0.1% DMSO
Procedure: Cell viability assay was performed based on the following brief procedures. Cells were plated at the density of 5K/well with volume of 180 μL in 96-well white plate and clear bottom plates. 20 μL of veh. or compound was added at proper concentration to the well. The final volume is 200 μL, with final conc. of DMSO=0.1%, 11 points, triplicates. The cells were then treated at 37° C. in the TC incubator for 72 hr. Equal volume (200 μL) of CellTiter-Glo reagent (Promega) was added to the well and protect from light at room temperature for 15 min. The chemiluminescence was measured with EnSight (Perkin Elmer). GraphPad Prism non-linear regression, Log[inhibitor] response with four parameters were used to calculate GI50.

KIT = target: T1, KIT (Homo sapiens, UniProt P10721); assay: Caliper mobility shift kinase inhibition assay, recombinant KIT; assay type: biochemical; settings: recombinant KIT 0.9 nM, ATP 400 μM, incubation 17 hr (Table 2)
T1 construct: purchased BPS 40250
T1 sequence (P10721 26-976): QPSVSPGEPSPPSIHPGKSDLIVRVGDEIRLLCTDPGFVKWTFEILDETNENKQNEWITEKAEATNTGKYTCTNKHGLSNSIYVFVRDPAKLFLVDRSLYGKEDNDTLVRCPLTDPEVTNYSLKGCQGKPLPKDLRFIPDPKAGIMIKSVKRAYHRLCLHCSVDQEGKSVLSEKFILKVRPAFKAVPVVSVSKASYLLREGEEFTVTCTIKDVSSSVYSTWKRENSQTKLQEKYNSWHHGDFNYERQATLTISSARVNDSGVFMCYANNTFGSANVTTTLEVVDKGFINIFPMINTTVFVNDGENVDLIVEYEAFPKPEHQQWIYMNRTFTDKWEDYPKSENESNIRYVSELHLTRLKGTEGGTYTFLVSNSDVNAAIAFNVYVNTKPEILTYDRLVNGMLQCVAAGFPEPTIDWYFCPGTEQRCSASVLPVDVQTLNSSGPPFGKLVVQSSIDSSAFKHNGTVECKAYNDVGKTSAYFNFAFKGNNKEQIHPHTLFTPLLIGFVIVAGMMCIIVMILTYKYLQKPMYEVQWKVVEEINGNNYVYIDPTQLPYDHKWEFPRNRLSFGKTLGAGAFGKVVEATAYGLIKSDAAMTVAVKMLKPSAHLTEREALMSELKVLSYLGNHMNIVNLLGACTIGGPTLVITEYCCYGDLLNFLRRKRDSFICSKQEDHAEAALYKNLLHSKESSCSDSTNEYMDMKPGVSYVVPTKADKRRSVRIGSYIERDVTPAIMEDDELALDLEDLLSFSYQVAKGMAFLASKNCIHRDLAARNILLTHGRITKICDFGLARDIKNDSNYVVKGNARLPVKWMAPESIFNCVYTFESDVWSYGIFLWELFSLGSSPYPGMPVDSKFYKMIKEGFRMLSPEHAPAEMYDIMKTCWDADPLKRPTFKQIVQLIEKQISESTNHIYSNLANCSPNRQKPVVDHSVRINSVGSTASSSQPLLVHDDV

FLT3 = target: T2, FLT3 (Homo sapiens, UniProt P36888); assay: Caliper mobility shift kinase inhibition assay, recombinant FLT3; assay type: biochemical; settings: recombinant FLT-3 0.1 nM, ATP 95 μM, incubation 3 hr, room temperature
T2 construct: purchased ThermoFisher PV3182
T2 sequence (P36888 27-993): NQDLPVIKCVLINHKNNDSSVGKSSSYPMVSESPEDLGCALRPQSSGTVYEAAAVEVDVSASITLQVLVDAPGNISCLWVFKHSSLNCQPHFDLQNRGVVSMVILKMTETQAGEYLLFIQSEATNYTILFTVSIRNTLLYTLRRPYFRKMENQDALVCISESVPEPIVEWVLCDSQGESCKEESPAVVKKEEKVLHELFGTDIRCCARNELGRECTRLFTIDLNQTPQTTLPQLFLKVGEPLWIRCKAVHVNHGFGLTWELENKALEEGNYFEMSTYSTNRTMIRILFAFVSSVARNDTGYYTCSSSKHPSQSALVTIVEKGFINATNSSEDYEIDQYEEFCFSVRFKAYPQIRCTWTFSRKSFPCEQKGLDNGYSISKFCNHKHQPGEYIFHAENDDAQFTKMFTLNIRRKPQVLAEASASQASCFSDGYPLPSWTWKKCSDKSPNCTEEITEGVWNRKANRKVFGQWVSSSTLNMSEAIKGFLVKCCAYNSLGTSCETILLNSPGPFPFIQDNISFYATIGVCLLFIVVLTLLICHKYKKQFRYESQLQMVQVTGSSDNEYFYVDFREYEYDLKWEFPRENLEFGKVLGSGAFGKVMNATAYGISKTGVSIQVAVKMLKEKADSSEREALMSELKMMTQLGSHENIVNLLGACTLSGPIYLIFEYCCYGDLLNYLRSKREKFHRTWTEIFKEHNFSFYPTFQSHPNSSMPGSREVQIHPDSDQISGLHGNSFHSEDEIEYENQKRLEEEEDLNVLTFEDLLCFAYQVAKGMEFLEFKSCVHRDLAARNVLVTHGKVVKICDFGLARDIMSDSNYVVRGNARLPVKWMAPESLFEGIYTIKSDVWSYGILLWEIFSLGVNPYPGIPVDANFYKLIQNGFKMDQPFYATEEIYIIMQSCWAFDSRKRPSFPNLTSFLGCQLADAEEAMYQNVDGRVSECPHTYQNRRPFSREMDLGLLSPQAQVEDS
Procedure: Compounds' inhibition of recombinant kinases (FLT3, KIT) was measured using Caliper mobility shift assay, which is based on the difference in capillary electrophoresis mobility of a fluorescent-tagged peptide as a result of a phosphorylation by the kinase under study. Reactions were started by the addition of various concentrations of a compound (originally in DMSO solution) to a kinase solution in assay buffer followed by addition of a mixture of ATP and a fluorescent-tagged peptide substrate in assay buffer. Concentrations of the enzyme, ATP and thepeptide were pre-optimized so that 15% substrate conversion to ensure initial velocity measurements. After incubation for 3 hours at room temperature, the kinase reaction was quenched by the addition of a concentrated EDTA solution before analysis on a LabChip EZ Reader II to yield percentage inhibition by comparing to the DMSO control. Table 2 below summarizes the assay conditions for the characterization of the kinase inhibition properties of the disclosed compounds.

GI50 (MV4-11; Homo sapiens)	IC50 (KIT)	IC50 (FLT3)	GI50 (MV4-11)	Compound
0.01 to 0.1 µM	0.01 to 0.1 µM	0.001 to 0.01 µM		C=CC(=O)N1C[C@H](O)C[C@H]1C(=O)NCCn1cnc2cnc(Nc3ncc(-c4ncncc4F)s3)cc21 [Example 21, (2S,4R)-N-[2-[6-[[5-(5-fluoropyrimidin-4-yl)thiazol-2-yl]amino]imidazo[4,5-c]pyridin-1-yl]ethyl]-4-hydroxy-1-prop-2-enoyl-pyrrolidine-2-carboxamide]
< 0.01 µM	< 0.001 µM	< 0.001 µM		C=CC(=O)N1CCOC[C@H]1C(=O)NCCn1cnc2cnc(Nc3ncc(-c4ncncc4F)s3)cc21 [Example 22, (3S)-N-[2-[6-[[5-(5-fluoropyrimidin-4-yl)thiazol-2-yl]amino]imidazo[4,5-c]pyridin-1-yl]ethyl]-4-prop-2-enoyl-morpholine-3-carboxamide]
	< 0.001 µM	< 0.001 µM	0.01 to 0.1 µM	(3S)-4-[(E)-4-(dimethylamino)but-2-enoyl]-N-[2-[6-[[5-(5-fluoropyrimidin-4-yl)thiazol-2-yl]amino]imidazo[4,5-c]pyridin-1-yl]ethyl]morpholine-3-carboxamide [Example 23]
0.01 to 0.1 µM	0.001 to 0.01 µM	< 0.001 µM		CN(C)C/C=C/C(=O)N1CCC[C@H]1C(=O)NCCn1cnc2cnc(Nc3ncc(-c4ccc(F)cc4)s3)cc21 [Example 3, (2S)-1-[(E)-4-(dimethylamino)but-2-enoyl]-N-[2-[6-[[5-(4-fluorophenyl)thiazol-2-yl]amino]imidazo[4,5-c]pyridin-1-yl]ethyl]pyrrolidine-2-carboxamide]
	0.1 to 1 µM	0.01 to 0.1 µM	0.01 to 0.1 µM	(2S,3S)-1-(2-fluoroprop-2-enoyl)-N-[2-[6-[[5-(3-fluoro-2-pyridyl)thiazol-2-yl]amino]imidazo[4,5-c]pyridin-1-yl]ethyl]-3-hydroxy-pyrrolidine-2-carboxamide [Example 25]
< 0.01 µM	0.01 to 0.1 µM	0.001 to 0.01 µM		C=C(F)C(=O)N1CCC[C@H]1C(=O)NCCn1cnc2cnc(Nc3ncc(-c4ncccc4F)s3)cc21 [Example 10]
< 0.01 µM	< 0.001 µM	< 0.001 µM		C=CC(=O)N1CCC[C@H]1C(=O)NCCn1cnc2cnc(Nc3ncc(-c4ccncc4F)s3)cc21 [Example 8, (2S)-N-[2-[6-[[5-(3-fluoro-4-pyridyl)thiazol-2-yl]amino]imidazo[4,5-c]pyridin-1-yl]ethyl]-1-prop-2-enoyl-pyrrolidine-2-carboxamide]
